The text below walks through data of patent publication US20100022635A1, “Heat shock protein 90 inhibitor dosing methods” (University of Kansas, priority 2008, published 2010).

Structures are written as SMILES.

The subject of data set [1] is streptozotocin (STZ)-induced diabetic neuropathy. The experiment in a line: STZ-induced diabetic neuropathy mouse model, initial studies (treatment after 8 weeks of diabetes). The data set is classed as in vivo. How it is done: Physiological studies were performed in a diabetic mouse model to determine if KU-32 is suitable for further pre-clinical development. A mouse model of streptozotocin (STZ)-induced diabetic neuropathy was utilized. One such diabetic mouse model is described, for example, in Christianson et al., Neuroscience, 2007, 145 (1): 303-313. […] Thus, although the drug was capable of attenuating the decline in SNCV, a more powerful indicator of efficacy and clinical usefulness was desired to indicate the drug could reverse a pre-existing deficit in NCV. […] The study was therefore repeated with a larger trial size and under more stringent long-term diabetic conditions prior to weekly drug administration.

Data set [2] can be described thus: Pharmacokinetics: plasma and brain levels of KU-32 in mice by LC-MS. Particulars: female Balb/c mice, 2 or 20 mg/kg, IP or IV injection, FIG. 1. The data set is classed as in vivo. How it is done: (§1) The plasma and brain levels of the Hsp90 inhibitor KU-32 as a function of time in mice were investigated following IP or IV injection to mice. Pharmacokinetics of KU-32 levels in mouse plasma and brain was determined by LC-MS. For these studies, female Balb/c mice (6-7 weeks) were injected with either 2 or 20 mg/kg KU-32 or vehicle. Mice were sacrificed at predetermined time points and plasma was collected following cardiac puncture for determination of KU-32 levels. The animals were perfused with normal saline and the brain was harvested and homogenized. Half the brain was analyzed for KU-32 levels and the remaining half was analyzed for Hsp70 levels.

The test system of the next data set is Hsp70. Description: Hsp70 levels in mouse brain after KU-32 IP administration (Hsp70/actin densitometry). The data set is classed as in vivo, mice. The conditions noted are these: single IP injection 2 or 20 mg/kg, frontal and hind brain sections, FIG. 2. The method, then: as §1
Changes in Hsp70 levels in mouse brain over time following KU-32 IP administration were determined. The ratio of Hsp70 to actin was determined in frontal and hind brain sections recovered from brains of mice at each indicated time point shown in FIG. 2 following administration of either 2 or 20 mg/kg KU-32, as discussed in Example 1. Densitometric analyses were performed, and the ratio of the Hsp70 immunoreactivity was determined using actin as a loading control.

Data set [3] has as its system streptozotocin (STZ)-induced diabetic neuropathy. The experiment in a line: STZ-induced diabetic neuropathy mouse model, second trial (treatment after 12 weeks of diabetes). The data set is classed as in vivo. How it is done: In a second trial, mice were rendered diabetic for 12 weeks. Diabetes was induced in test mice by 3 injections of streptozotocin (STZ) (n=28), and control mice (n=28) received a vehicle injection. Nerve conduction velocity (NCV) was measured in 4 mice from each group after 12 weeks, prior to initiating KU-32 treatment, after which time they developed substantial deficits in MNCV and SNCV (FIG. 7). Asterisks indicates p<0.05 compared to the time matched control. Diabetic mice also developed a substantial mechanical hypoalgesia after 5 weeks (FIG. 8) and a rapid onset of a thermal hypoalgesia (FIG. 9). Thus, any improvements by KU-32 were considered to be indicative of reversibility of a pre-existing deficits and not prevention.
After 12 weeks of diabetes, mice received weekly doses of 20 mg/kg KU-32 or vehicle by IP injection, and thermal and mechanical hypoalgesia were monitored. […] The asterisk indicates p<0.05 compared to the time matched control. The carat indicates p<0.05 compared to 14 weeks of STZ-Veh. Animal numbers were n=28 for Veh-Veh and STZ-Veh up to 12 weeks. Group numbers were n=12 at initiation of KU-32 and its vehicle (Veh).
The asterisk indicates p<0.05 compared to the time matched control, and the carat indicates p<0.05 compared to 14 weeks of STZ-Veh. Animal numbers were n=28 for Veh-Veh and STZ-Veh up to 12 weeks. Group numbers were n=12 at initiation of KU-32 and its vehicle (Veh).
Importantly, a similar recovery was evident after 12 weeks of diabetes despite the onset in improvement requiring 4 weeks of treatment. The delay may relate to the more severe decline in the function of the smaller sensory fibers since treatment was not started until 12 weeks of diabetes. The diabetic mice were very ill after 16 weeks and therefore were terminated at this time. […] Since the deficits in mechanical and thermal hypoalgesia reached a plateau between 12-14 weeks, the measures at 14 weeks of diabetes were used to assess for statistical improvements in sensory function after 3 or more weeks of KU-32 treatment. […] Thus, KU-32 improves nerve function in the absence of an overall improvement in metabolic parameters related to diabetes, i.e., hyperglycemia and weight loss. The data provides solid proof-of-principle that KU-32 can effectively reverse pre-existing deficits in two sensory measures that are direct, clinically relevant, parallels of human symptoms.

The subject of another data set is EAE model. Description: Single vs. weekly dosing in murine EAE MS model. The data set is classed as in vivo, mice. Particulars: single 20 mg/kg IP dose at onset of symptoms, first onset of disease (10-20 days). The method, then:
In this example, female SJL/J mice (6-7 weeks old) were immunized with proteolipid protein (“PLP”) in CFA and pertussis toxin IV on day 0. The mice were boosted with PLP in IFA on day seven. At the onset of symptoms, mice received either a single 20 mg/kg dose of KU-32 IP, weekly 2 mg/kg IP doses of KU-32, or no treatment. The mice were scored daily for severity of disease and body weight.

The test system of data set [4] is Experimental Autoimmune Encephalomyelitis; EAE. Description: Daily dosing in murine EAE multiple sclerosis model. The data set is classed as in vivo, mice. The text has this:
In this example, female SJL/J mice (6-7 weeks old) were immunized with proteolipid protein (“PLP”) in CFA and pertussis toxin IV on day 0. The mice were boosted with PLP in IFA on day seven.

Data set [5] deals with neuregulin-induced demyelination. Description: Cell culture model of myelinated nerve. The data set is classed as cell-based. The text has this: Diabetic peripheral neuropathy (DPN) results from the degeneration of nerves that transmit sensations from the legs and arms. Schwann cells are specialized cells that closely associate with many nerves and also undergo profound changes in DPN. Schwann cells are necessary to form the myelin membrane that is present on many peripheral nerves and the loss of this myelin membrane is a common characteristic of human diabetic neuropathy. Identifying molecular mechanisms that may prevent demyelination or enhance remyelination are therefore good targets for therapeutic interventions in human DPN. Altered neurotrophism in DPN is described in detail in, for example, Dobrowsky et al., JPET 313:485-491, 2005. Heat shock protein 90 inhibitors offer a potential therapeutic approach toward treating DPN. A cell culture model of myelinated nerve was used to identify new molecular targets that can prevent demyelination.

The nature of data set [6]: Phase-solubility of KU-32 in Captisol in water. The data set is classed as physicochemical. How it is done: On day 12 of the study mice received 2, 5 or 10 mg/kg KU-32 by IP injection on a daily basis. KU-32 was formulated at all concentrations in 0.05 M Captisol®. To access the phase-solubility behavior of KU-32 in Captisol®, KU-32 in excess of its expected solubility were equilibrated with increasing concentrations of Captisol® in water. The suspensions were allowed to equilibrate at least 24-hours at 25° C., after which time the suspensions were centrifuged and the KU-32 concentration in the supernatant determined by RP-HPLC.

Setting [7] is: weekly 20 mg/kg IP after 8 weeks of diabetes, did not reach significance.
[8] abbreviates: diabetic animals receiving KU-32 compared to the diabetic mice.

Consider `CO[C@@H]1[C@@H](O)[C@@H](O)[C@H](Oc2ccc3cc(NC(C)=O)c(=O)oc3c2C)OC1(C)C` [KU-32, N-(7-((2R,3R,4S,5R)-3,4-dihydroxy-5-methoxy-6,6-dimethyltetrahydro-2H-pyran-2-yloxy)-8-methyl-2-oxo-2H-chromen-3-yl)acetamide], for which the “time to improvement in thermal sensitivity” value in data set [1] (treatment initiated after 8 weeks of diabetes) was “evident within two weeks”. The thermal hypoalgesia entry is reported as “sufficient to improve thermal hypoalgesia” in data set [1] (weekly 20 mg/kg IP after 8 weeks of diabetes) and “improved thermal hypoalgesia” in data set [3] (weekly 20 mg/kg IP after 12 weeks of diabetes, FIG. 9). Also, the “sensory nerve conduction velocity (SNCV)” value in data set [1] (weekly 20 mg/kg IP after 8 weeks of diabetes, decrease observed after 15 weeks of diabetes) was “helped to improve the decrease in sensory nerve conduction velocity”. For the same compound, the mechanical hypoalgesia result in data set [1] (setting [7]) was “seemed to have an effect on mechanical hypoalgesia”; in data set [3] (weekly 20 mg/kg IP after 12 weeks of diabetes, FIG. 8) it was “significantly improved the mechanical hypoalgesia after 3 weeks of treatment”. For the same compound, in data set [1] (setting [7]), the “motor NCV (MNCV) deficit” value is “improved the pre-existing motor NCV (MNCV) deficit”. Further, in data set [2], the “KU-32 levels in mouse plasma and brain over time” value is reported as “fall below detectable limits by eight hours”. The “Hsp70 levels in mouse brain (ratio of Hsp70 to actin)” value in the data set with Hsp70 is “increased following single IP injection of KU-32 in mice over a 72-96 hour period and remained elevated”. In addition, the body weight result in data set [3] (setting [8]) is reported as “no differences”; in the data set with EAE model (FIG. 6), “lost less body weight”. In addition, the fasting blood glucose entry in data set [3] (setting [8]) is on record as “no differences”. In addition, the “onset in improvement of thermal sensitivity” value in data set [3] (treatment started after 12 weeks of diabetes) was 4 weeks of treatment. Moreover, the clinical score result is “better clinical score” in the data set with EAE model (FIG. 5); “increase in the rate of onset and worsening of the disease” in data set [4] (SJL/J mice, 2, 5 or 10 mg/kg IP daily from day 12, FIG. 4). In addition, the body weights entry in data set [4] (SJL/J mice, 2, 5 or 10 mg/kg IP daily from day 12, FIG. 3) was “increase in the rate of onset and worsening of the disease”. The neuregulin-induced demyelination result in data set [5] was “prevent neuregulin-induced demyelination”. For the same compound, in data set [6] (0.05-0.2 M Captisol in water, at least 24 hours at 25° C., RP-HPLC), the phase-solubility behavior result was “AP-type”. In data set [6] (0.05 M Captisol), the “solubility in 0.05 M Captisol” value is given as “adequate solubility”.
